Results taken from patent publication US5516905A, “Antibiotic compounds and methods to treat gram-positive bacterial and mycoplasmal infections” (priority 1994, dated 1996).
Values after ≈ are worked out from the molar mass of the structure shown. Where two headings read alike, the source gives them in different places.

Tests used:
[1] = tested on: Control SA; test: Minimal inhibitory concentration vs. growth of Staphylococcus aureus (control strain); assay type: cell-based
[2] = tested on: Methicillin-Resistant SA; test: Minimal inhibitory concentration vs. growth of methicillin-resistant Staphylococcus aureus; assay type: cell-based
[3] = tested on: Wild-Type BS; test: Minimal inhibitory concentration vs. growth of B. subtilis; assay type: cell-based; settings: Bacillus subtilis
[4] = tested on: M. pulmonis strain KD735-15; test: Mycoplasmal growth inhibition on agar (colony formation, cfu); assay type: cell-based, Mycoplasma pulmonis; settings: for IC99: Mycoplasmopsis pulmonis, KD73515, series 100, 50, 25, 12.5 and 6.25 μM, read-out: Concentration required to inhibit colony formation by 99%
Method: M. pulmonis strain KD735-15 (construction described in Bhugra and Dybvig, 1992) was propagated in mycoplasmal medium, and colony-forming units (cfu) were assessed on agar as previously described (Dybvig and Cassell, 1987). M pulmonis is a representative species which is well characterized. Other publicly available strains may also be used. For example, Mycoplasma agalactiae, ATCC 35890, Mycoplasma arthritidis ATCC 13988, Mycoplasma bovigenitalium, ATCC 14173, Mycoplasma bovirhinis, ATCC 27748, Mycoplasma bovis, ATCC 25025, Mycoplasma felis, ATCC 23391, Mycoplasma gallinaceum, ATCC 33550, Mycoplasma gallinarum, ATCC 15319, Mycoplasma gallisepticum, ATCC 15302, Mycoplasma genitalium, ATCC 33530, Mycoplasma hominis, ATCC 14027, Mycoplasma hyorhinis, ATCC 17981, Mycoplasma hyosynoviae, ATCC 25591, Mycoplasma meleagridis, ATCC 25294, Mycoplasma orale, ATCC 15539, Mycoplasma pneumoniae, ATCC 15293, Mycoplasma pullorum, ATCC 33553, Mycoplasma pulmonis, ATCC 14267, Mycoplasma putrefaciens, ATCC 15718, Mycoplasma synoviae, ATCC 25204, may also be used. The inhibitors used here were prepared as described in Wright and Brown ((1990) Pharmac. Ther. 47:447-497) and were prepared at a stock concentration of 20 mM in dimethyl sulphoxide (DMSO). Growth inhibition was examined on agar by comparing cfu obtained on medium lacking or supplemented with antibiotic. DMSO alone at concentrations as high as 1% had no effect on growth or cfu capacity of M. pulmonis.
HPUra and 25 other agents selected from a large collection of structurally related compounds (Wright and Brown, 1990, Pharmac. Ther. 47:447-497) were tested against M. pulmonis at a concentration of 200 μM as described in the Experimental procedures.

[5] = target: T1, B. subtilis Pol III (Bacillus subtilis, UniProt P13267); test: DNA polymerase activity assay, B. subtilis Pol III; assay type: biochemical; settings: dGTP 10 μM; arylazopyrimidines reduced to hydrazino forms
T1 construct: B. subtilis Pol III was prepared and used as described by (Barnes); made in house
T1 sequence (P13267 whole entry): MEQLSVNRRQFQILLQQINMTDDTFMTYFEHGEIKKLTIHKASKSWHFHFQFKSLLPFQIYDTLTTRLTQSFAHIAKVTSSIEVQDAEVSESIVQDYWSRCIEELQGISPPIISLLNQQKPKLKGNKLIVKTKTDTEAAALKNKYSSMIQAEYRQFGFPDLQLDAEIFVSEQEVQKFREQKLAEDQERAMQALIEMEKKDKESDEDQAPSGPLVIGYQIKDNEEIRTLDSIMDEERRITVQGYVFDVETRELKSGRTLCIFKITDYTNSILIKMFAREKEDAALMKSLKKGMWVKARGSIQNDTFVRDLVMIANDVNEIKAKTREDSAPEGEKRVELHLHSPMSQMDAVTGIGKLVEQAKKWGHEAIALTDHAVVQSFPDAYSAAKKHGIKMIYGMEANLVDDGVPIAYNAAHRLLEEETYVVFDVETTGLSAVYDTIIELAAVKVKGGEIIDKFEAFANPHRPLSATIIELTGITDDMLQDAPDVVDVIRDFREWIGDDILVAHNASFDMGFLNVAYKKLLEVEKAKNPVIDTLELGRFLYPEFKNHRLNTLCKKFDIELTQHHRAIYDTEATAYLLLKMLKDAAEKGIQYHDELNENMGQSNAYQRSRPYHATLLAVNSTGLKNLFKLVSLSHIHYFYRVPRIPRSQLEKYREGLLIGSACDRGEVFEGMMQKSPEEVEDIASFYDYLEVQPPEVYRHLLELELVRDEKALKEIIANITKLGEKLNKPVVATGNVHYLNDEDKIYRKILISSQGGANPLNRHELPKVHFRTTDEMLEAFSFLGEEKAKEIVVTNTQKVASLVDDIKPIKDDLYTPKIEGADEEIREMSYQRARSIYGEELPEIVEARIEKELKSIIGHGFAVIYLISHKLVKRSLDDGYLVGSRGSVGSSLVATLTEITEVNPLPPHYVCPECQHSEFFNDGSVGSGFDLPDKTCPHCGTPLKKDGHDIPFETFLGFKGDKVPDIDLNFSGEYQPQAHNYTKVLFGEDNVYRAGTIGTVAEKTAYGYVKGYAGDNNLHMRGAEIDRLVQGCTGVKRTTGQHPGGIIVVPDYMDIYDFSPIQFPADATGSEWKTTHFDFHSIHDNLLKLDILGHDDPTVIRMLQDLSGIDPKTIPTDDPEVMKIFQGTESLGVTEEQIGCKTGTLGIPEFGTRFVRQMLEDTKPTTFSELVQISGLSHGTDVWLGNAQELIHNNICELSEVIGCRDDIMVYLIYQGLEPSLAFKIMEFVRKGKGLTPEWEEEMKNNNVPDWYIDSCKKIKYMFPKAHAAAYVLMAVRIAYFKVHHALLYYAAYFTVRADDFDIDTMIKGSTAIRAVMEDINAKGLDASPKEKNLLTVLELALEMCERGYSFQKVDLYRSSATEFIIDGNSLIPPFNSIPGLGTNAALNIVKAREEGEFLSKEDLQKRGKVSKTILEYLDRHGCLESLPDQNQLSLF
Method: (§1) DNA pol activity was assayed as described (Barnes et al., NuC. Acids Res., 6:1203-19 (1979)), using activated calf-thymus DNA as template primer, […] [^3 H-methyl]-dTTP as the labelled dNTP substrate, and dATP, dCTP, and dGTP at 25 μM each. For determination of IC50 values of TMAU and the four arylazopyrimidines (summarized in Table 2), the concentration of dGTP was reduced from 25 to 10 μM. TMAU was used directly in enzyme assays, and arylazopyrimidines were reduced prior to assay to the active, hydrazino forms, using sodium dithionite as described by Wright and Brown (1977) J. Med. Chem. 20:1181-1185.
(§2) Five compounds were used to assess the sensitivity of peak A pol activity to HPUra-type inhibitors. These were the four compounds used in the growth experiment described above (HPUra, PUra, PCPUra, and MCPUra) as well as TMAU (6-([…]) uracil), a `second generation` derivative of the HPUra prototype, equivalent in mechanism and target specificity (Wright and Brown, 1990). The IC50 value (the concentration required for 50% inhibition) of each of these agents was determined for the peak A pol activity and for an inhibitor-sensitive control enzyme, B. subtilis Pol III.

[6] = target: T2, M. pulmonis peak A pol activity (Pol III) (Bacillus subtilis, UniProt P13267); test: DNA polymerase activity assay, M. pulmonis peak A pol (Bio-Rex 70); assay type: biochemical; settings: 200 μM HPUra
T2 construct: we prepared a crude extract of M. pulmonis; endogenous in cells; host or cells: M. pulmonis (strain KD735-15 was the strain propagated)
T2 sequence (P13267 whole entry): as above
Method: (§3) Fraction Va (Bio-Rex 70 chromatography): Fraction IV was diluted with column buffer containing 1% Triton X-100 to reduce the concentration of NaCl to 25 mM, and then applied to a 2 ml Bio-Rex 70 (Bio-Rad) column equilibrated in column buffer containing 1% Triton X-100+25 mM NaCl. The column was washed with 5 ml of the same buffer, and the adsorbed enzyme was eluted in two distinct peaks (designated A and B) at approximately 0.15 and 0.30M NaCl, respectively. As the top panel of the figure indicates, peak A represents the HPUra-sensitive pol activity. Peak A was pooled to generate Fraction Va.
as §1, §2

[7] = target: T3, M. pulmonis peak A pol activity (Pol III); test: as above; assay type: biochemical; settings: Fraction 7 from peak A; dGTP 10 μM; arylazopyrimidines reduced to hydrazino forms
T3 construct: we prepared a crude extract of M. pulmonis; endogenous in cells; host or cells: M. pulmonis (strain KD735-15 was the strain propagated)
T3 sequence (P13267 whole entry): as above
Method: as §3, §1, §2

[8] = tested on: M. pulmonis peak B pol activity; test: DNA polymerase activity assay, M. pulmonis peak B pol (Bio-Rex 70); assay type: biochemical; settings: 200 μM HPUra
Method: as §3, §1
To characterize the HPUra-sensitive pol activity further, we purified it using a five-step scheme summarized in Table 1 and described in the Experimental procedures. […]

[9] = tested on: mammalian cells; settings: cited from earlier work
[10] = target: T4, exo activity of peak A pol (Bacillus subtilis, UniProt P13267); test: Exo activity of peak A enzyme on 3'-labelled ssDNA; assay type: biochemical, M. pulmonis; settings: for inhibition at 50 µM: read-out: Inhibition of ssDNA digestion
T4 construct: we prepared a crude extract of M. pulmonis; endogenous in cells; host or cells: M. pulmonis (strain KD735-15 was the strain propagated)
T4 sequence (P13267 whole entry): as above
Method: (§4) Exo activity was assayed as described by Low et al. (1976), supra, using denatured calf-thymus DNA incorporating [^3 H]-dTMP residues at the 3'-OH ends.
(§5) TMAU at 50 μM inhibited ssDNA digestion by about 70% in the presence of dsDNA. When the latter mixture was supplemented with 500 μM dGTP, the specific antagonist of TMAU-induced sequestration inhibition was reduced to a level of <3%.

[11] = tested on: T5, exo activity of peak A pol; test: Exo activity of peak A enzyme on 3'-labelled ssDNA; assay type: biochemical, M. pulmonis; settings: TMAU 50 μM, dsDNA, plus 500 μM dATP
T5 construct: we prepared a crude extract of M. pulmonis; endogenous in cells; host or cells: M. pulmonis (strain KD735-15 was the strain propagated)
T5 sequence (P13267 whole entry): as above
Method: as §4, §5

[12] = nucleotide 500 μM, no TMAU, sequestering conditions with dsDNA

SMILES	MIC [1] [µg/mL]	MIC [2] [µg/mL]	MIC [3] [µg/mL]	IC50 [5] [µM]	IC50 [7] [µM]	also measured
CCn1c(=O)cc(Nc2ccc3c(c2)CCC3)[nH]c1=O [C2 H5]	1 (≈ 3.69 µM)	0.5 (≈ 1.84 µM)	4 (≈ 14.7 µM)	–	–	–
Cn1c(=O)cc(Nc2ccc3c(c2)CCC3)[nH]c1=O [CH3]	–	–	7 (≈ 27.2 µM)	–	–	–
O=c1cc(N=Nc2ccc(O)cc2)[nH]c(=O)[nH]1 [HPUra, 6-(p-Hydroxyphenylazo)-uracil]	–	–	–	11	14	Inhibition of colony formation ([4]; 200 μM): completely inhibited colony formation; Sensitivity of peak A pol activity [6]: drug-sensitive; Sensitivity of peak B pol activity [8]: insensitive; Toxicity in mammalian cells [9]: low toxicity
O=c1cc(N=Nc2cccc(Cl)c2)[nH]c(=O)[nH]1 [MCPUra, 6-(m-chlorophenylazo)uracil]	–	–	–	48	17	IC99 [4]: 12.5 µM
COc1cccc(OC)c1C(=O)N[C@@H]1C(=O)N2[C@@H]1SC(C)(C)[C@@H]2C(=O)O [Methicillin]	1 (≈ 2.63 µM)	128 (≈ 336 µM)	–	–	–	–
Oc1cc(N=Nc2ccc(Cl)cc2)nc(O)n1 [PCPUra, 6-(p-chlorophenylazo) uracil]	–	–	–	57	31	IC99 [4]: < 6.25 µM
Nc1ncnc2c1ncn2[C@H]1C[C@H](O)[C@@H](COP(=O)(O)OP(=O)(O)OP(=O)(O)O)O1 [dATP]	–	–	–	–	–	Exo Activity (%) [10, 12]: 101%
Nc1nc2c(ncn2[C@H]2C[C@H](O)[C@@H](COP(=O)(O)OP(=O)(O)OP(=O)(O)O)O2)c(=O)[nH]1 [dGTP]	–	–	–	–	–	Exo Activity (%) [10, 12]: 103%

The next lines start with results.

MIC [1] [µg/mL]	MIC [2] [µg/mL]	MIC [3] [µg/mL]	IC50 [5] [µM]	IC50 [7] [µM]	SMILES	also measured
–	–	–	34	20	O=c1cc(N=Nc2ccccc2)[nH]c(=O)[nH]1 [PUra, 6-(phenylazo)uracil]	IC99 [4]: 6.25 to 12.5 µM
8 (≈ 32.9 µM)	4 (≈ 16.4 µM)	23 (≈ 94.5 µM)	8	11	O=c1cc(Nc2ccc3c(c2)CCC3)[nH]c(=O)[nH]1 [TMAU, 6-(3',4'-trimethylanilino) uracil]	Exo Activity (%) ([10]; TMAU 50 μM + dGTP 500 μM, sequestering conditions with dsDNA): 98%; activity at 50 µM ([10]; TMAU 50 μM alone, sequestering conditions with dsDNA): 31%; inhibition at 50 µM ([10]; TMAU 50 μM, dsDNA, plus 500 μM dGTP): < 3%; inhibition at 50 µM ([10]; TMAU 50 μM, in the presence of dsDNA): ~70%; Exo activity on ssDNA, sensitivity ([10]; TMAU 50 μM, ssDNA without dsDNA, preliminary, results not shown): resistant; Effect of dATP on level of inhibition of ssDNA digestion [11]: no significant effect
–	–	3.5 (≈ 12.3 µM)	–	–	CCCn1c(=O)cc(Nc2ccc3c(c2)CCC3)[nH]c1=O [nC3 H7]	–
> 128	0.5 (≈ 1.67 µM)	1.8 (≈ 6.01 µM)	–	–	CCCCn1c(=O)cc(Nc2ccc3c(c2)CCC3)[nH]c1=O [nC4 H9]	–
